This is an account of results in article PMC4039129, “Specificity and Promiscuity at the Branch Point in Gentamicin Biosynthesis” (Chemistry & Biology, 2014).

In assay [1] the target is T1, GenB1 (Micromonospora echinospora, UniProt Q70KD9).
T1 construct: gene gacK; N-His6-tagged, pET28a(+), E. coli BL21(DE3); contains PLP
The experiment in a line: LC-ESI-MS, GenQ-coupled transamination. In kind it is biochemical. To be noted: amino donor 2 mM; 6'-DOG made in situ from 200 uM G418 by 16 uM GenQ; 20 uM GenB1; Tris-HCl pH 8.0, 30 °C.

In assay [2] the target is T2, GenB2 (Micromonospora echinospora, UniProt Q70KE6).
T2 construct: gene gacE; N-His6-tagged, pET28a(+), E. coli BL21(DE3); contains PLP
T2 sequence (Q70KE6 entry or part of it): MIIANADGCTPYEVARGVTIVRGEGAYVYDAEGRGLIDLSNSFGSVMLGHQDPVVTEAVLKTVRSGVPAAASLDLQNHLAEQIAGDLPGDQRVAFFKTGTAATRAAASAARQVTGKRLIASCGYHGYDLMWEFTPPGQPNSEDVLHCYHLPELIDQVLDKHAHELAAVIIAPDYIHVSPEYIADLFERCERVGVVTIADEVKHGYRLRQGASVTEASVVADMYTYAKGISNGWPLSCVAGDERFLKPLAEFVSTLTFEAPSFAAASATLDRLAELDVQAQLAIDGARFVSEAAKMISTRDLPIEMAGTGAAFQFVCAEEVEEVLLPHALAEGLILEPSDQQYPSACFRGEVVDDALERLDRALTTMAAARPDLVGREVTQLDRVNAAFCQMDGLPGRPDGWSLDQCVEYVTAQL
The experiment in a line: LC-ESI-MS, […]'-epimerization. To be noted: 200 uM substrate, 20 uM enzyme, Tris-HCl pH 8.0, 30 °C overnight; reversible. In kind it is biochemical.

For assay [3], the target named is T3, GenQ (VM_GenQ) (Micromonospora echinospora, UniProt Q70KE0).
T3 construct: gene gacJ; full length with 38 extra N-terminal residues absent in original annotation; N-His6 tag, pET28a(+), E. coli BL21(DE3); contains FAD
T3 sequence (Q70KE0 entry or part of it): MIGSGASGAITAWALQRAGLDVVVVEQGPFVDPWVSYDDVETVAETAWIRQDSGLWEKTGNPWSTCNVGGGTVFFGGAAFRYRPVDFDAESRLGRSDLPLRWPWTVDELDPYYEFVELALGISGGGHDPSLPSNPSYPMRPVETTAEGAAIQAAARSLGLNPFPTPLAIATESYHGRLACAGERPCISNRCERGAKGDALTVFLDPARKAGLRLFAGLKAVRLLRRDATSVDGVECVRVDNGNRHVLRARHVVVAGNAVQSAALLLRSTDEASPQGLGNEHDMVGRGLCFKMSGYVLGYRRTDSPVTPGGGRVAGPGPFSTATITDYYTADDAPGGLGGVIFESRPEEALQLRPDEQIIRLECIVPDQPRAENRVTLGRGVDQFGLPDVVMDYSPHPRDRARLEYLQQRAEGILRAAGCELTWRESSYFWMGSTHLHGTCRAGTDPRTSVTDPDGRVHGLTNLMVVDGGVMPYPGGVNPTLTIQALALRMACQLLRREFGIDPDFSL
The experiment in a line: LC-ESI-MS, […]'-dehydrogenation. The following applies: 200 uM substrate, 16 uM enzyme, Tris-HCl pH 8.0, 30 °C overnight. In kind it is biochemical.

Assay [4] deals with T4, GenB4 (Micromonospora echinospora, UniProt Q6QVT7).
T4 construct: gene gntH; N-His6-tagged, pET28a(+), E. coli BL21(DE3); contains PLP
T4 sequence (Q6QVT7 entry or part of it): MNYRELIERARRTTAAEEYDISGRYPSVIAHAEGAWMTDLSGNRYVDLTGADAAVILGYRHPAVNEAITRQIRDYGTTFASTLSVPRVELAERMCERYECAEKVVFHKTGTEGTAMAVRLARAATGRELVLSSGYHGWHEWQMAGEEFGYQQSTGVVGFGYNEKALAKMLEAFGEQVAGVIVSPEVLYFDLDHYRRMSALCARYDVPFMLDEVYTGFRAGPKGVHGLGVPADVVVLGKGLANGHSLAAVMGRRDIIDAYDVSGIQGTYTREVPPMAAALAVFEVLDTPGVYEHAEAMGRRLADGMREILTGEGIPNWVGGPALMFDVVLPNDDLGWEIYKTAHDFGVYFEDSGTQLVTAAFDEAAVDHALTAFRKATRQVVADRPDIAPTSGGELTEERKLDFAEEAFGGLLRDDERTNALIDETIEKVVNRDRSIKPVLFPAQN
The experiment in a line: UV-visible absorption spectrum. In kind it is binding. To be noted: co-purified cofactor.

Assay [5] has as its target T2, GenB2. The experiment in a line: UV-visible absorption spectrum. To be noted: co-purified cofactor. In kind it is binding.
Assay [6] addresses T1, GenB1. The assay is described as follows: UV-visible absorption spectrum. To be noted: co-purified cofactor. Type of assay: binding.
In assay [7] the target is T5, GenB3 (Micromonospora echinospora, UniProt Q2MG50).
T5 construct: N-His6-tagged, pET28a(+), E. coli BL21(DE3); contains PLP
T5 sequence (Q2MG50 entry or part of it): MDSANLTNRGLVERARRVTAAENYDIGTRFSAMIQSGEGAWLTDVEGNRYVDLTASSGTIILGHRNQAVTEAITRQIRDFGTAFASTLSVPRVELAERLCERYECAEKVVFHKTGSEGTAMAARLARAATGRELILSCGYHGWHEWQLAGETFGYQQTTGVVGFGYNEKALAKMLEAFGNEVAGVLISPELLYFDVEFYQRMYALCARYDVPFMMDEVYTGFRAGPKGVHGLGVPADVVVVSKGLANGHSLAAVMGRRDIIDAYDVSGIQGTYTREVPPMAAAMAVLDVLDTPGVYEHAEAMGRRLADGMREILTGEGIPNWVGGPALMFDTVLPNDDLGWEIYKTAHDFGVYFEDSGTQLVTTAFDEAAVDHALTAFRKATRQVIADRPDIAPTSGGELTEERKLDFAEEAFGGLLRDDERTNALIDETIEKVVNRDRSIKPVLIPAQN
The experiment in a line: UV-visible absorption spectrum. In kind it is binding. The following applies: co-purified cofactor.

T1 sequence (Q70KD9 entry or part of it): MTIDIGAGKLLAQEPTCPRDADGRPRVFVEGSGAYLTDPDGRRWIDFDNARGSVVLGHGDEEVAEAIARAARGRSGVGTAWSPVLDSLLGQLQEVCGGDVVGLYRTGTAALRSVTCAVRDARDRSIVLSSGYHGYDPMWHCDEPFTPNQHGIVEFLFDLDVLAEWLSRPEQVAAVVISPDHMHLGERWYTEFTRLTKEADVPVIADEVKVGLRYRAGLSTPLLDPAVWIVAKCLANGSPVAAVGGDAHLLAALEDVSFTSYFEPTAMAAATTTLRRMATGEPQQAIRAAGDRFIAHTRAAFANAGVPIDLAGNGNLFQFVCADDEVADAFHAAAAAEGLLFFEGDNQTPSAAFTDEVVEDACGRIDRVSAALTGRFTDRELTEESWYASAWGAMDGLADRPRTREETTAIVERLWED

On to `CSCC[C@H](N)C(=O)O` [L-methionine], for which the “LC-ESI-MS, GenQ-coupled transamination” value in assay [1] was “conversion of G418 to JI-20B, with L-methionine as the most effective amino donor”.

Regarding `CN[C@@H]1[C@@H](O)[C@@H](O[C@@H]2[C@@H](O)[C@H](O[C@H]3O[C@H]([C@H](C)N)CC[C@H]3N)[C@@H](N)C[C@H]2N)OC[C@]1(C)O` [gentamicin C2a], the “LC-ESI-MS, 6'-epimerization” value in assay [2] is “when C2a was used as the substrate the reverse reaction was also detected”.

Consider `CN[C@@H]1[C@@H](O)[C@@H](O[C@@H]2[C@@H](O)[C@H](O[C@H]3O[C@H](CO)[C@@H](O)[C@H](O)[C@H]3N)[C@@H](N)C[C@H]2N)OC[C@]1(C)O` (stereo in doubt) [gentamicin X2], for which the “LC-ESI-MS, 6'-dehydrogenation” value in assay [3] was “GenQ also showed activity with X2 as the substrate”.

For `Cc1ncc(COP(=O)(O)O)c(C=O)c1O` [pyridoxal-5′-phosphate], the UV-visible absorption spectrum entry in assay [4], in assay [5], in assay [6] and in assay [7] was “UV-visible absorption spectra typical of aminotransferases containing bound pyridoxal-5′-phosphate cofactor” in each case.

On to `CN[C@@H]1[C@@H](O)[C@@H](O[C@@H]2[C@@H](O)[C@H](O[C@H]3O[C@H]([C@@H](C)N)CC[C@H]3N)[C@@H](N)C[C@H]2N)OC[C@]1(C)O` [gentamicin C2], for which, in assay [2], the “LC-ESI-MS, 6'-epimerization” value is recorded as “GenB2 did catalyze the epimerization of C2”.
